Laboratory results taken from US10021901B2, “Antimicrobial mixture of aldehydes, organic acids and fatty acid esters” (ANITOX CORPORATION, priority 2011, dated 2018).
Converted amounts (≈) assume the structure as drawn. Where two headings read alike, the source gives them in different places.

How the values were obtained:
[1] = test system: Salmonella typhimurium (ATTC:14028); assay: Organic acid esters against Salmonella typhimurium in test tubes (Example 1); type: cell-based; details: for killing at 0.01 % / killing at 0.05 %: Salmonella enterica, TYPHIMURIUM, read-out: Reduction (% Reduction) of Salmonella typhimurium in vitro
Method: Methyl and ethyl esters of organic acids were added to test tubes at concentrations of 0.01% and 0.05%. Tubes were vortexed for 10 seconds to uniformly mix the solution. A suspension of Salmonella typhimurium (ATTC:14028) was added to each test tube to achieve a final concentration of 10^4 cfu/ml. The solutions were vortexed, incubated at room temperature for 24 hours and plated on XLT-4 agar. Plates were incubated for 48 hours at 37° C. before enumerating colonies.

[2] = test system: M. gypseum; details: cited from earlier work
[3] = test system: Phoma mycelium; details: cited from earlier work
[4] = test system: P. syringae pathovars; details: vapour; cited from earlier work
[5] = test system: yeast (10^5 CFU/bottle) in beverages; details: cited from earlier work
[6] = test system: Penicillium expansum; details: blue mold; cited from earlier work
[7] = test system: Helicobacter pylori and S. cholerasuis; details: Kubo 1999; Kubo and Fujita 2001; cited from earlier work
[8] = test system: B. cereus, S. typhimurium, V. parahaemolyticus, L. monocytogenes, S. aureus and E. coli O157:H7; details: cited from earlier work
[9] = test system: E. coli; details: vapour; cited from earlier work
[10] = test system: apricots, peaches and nectarines; details: cited from earlier work
[11] = test system: A. flavus, P. notatum, A. alternate, F. oxysporum, Cladosporium spp., B. subtilis and A. tumerfaciens; details: cited from earlier work
[12] = test system: Staphylococcus aureus, E. coli and Salmonella typhimurium; details: cited from earlier work
[13] = Methyl Ester, 0.01% Dilution, 24 hours room temperature, compared to control
[14] = Methyl Ester, 0.05% Dilution, 24 hours room temperature, compared to control
[15] = Ethyl Ester, 0.01% Dilution, 24 hours room temperature, compared to control
[16] = Ethyl Ester, 0.05% Dilution, 24 hours room temperature, compared to control

For `CCCCC(=O)OCC` [Valeric (pentanoic) acid Ethyl Ester, Ethyl pentanoate], which killing at 0.01 % ([1]; 24 h) is on record?
The killing at 0.01 % was 93%.

And the killing at 0.05 % ([1]; 24 h)?
Its killing at 0.05 % is 100%.

Which results are given for `COC(=O)CCC(C)=O` [Levulinic acid Methyl Ester]?
killing at 0.01 % [1, 13]: 0%; killing at 0.05 % [1, 14]: 12%

With `CCOC(=O)CC(C)C` [Isovaleric acid Ethyl Ester] as the molecule, how does the killing at 0.01 % [1, 15] read?
The killing at 0.01 % was 61%.

What about the killing at 0.05 % [1, 16] of the same molecule?
Its killing at 0.05 % is 100%.

For `CCOC(C)=O` [Acetic acid Ethyl Ester], which killing at 0.01 % [1, 15] is on record?
The killing at 0.01 % was 0%.

What about the killing at 0.05 % [1, 16] of the same molecule?
Its killing at 0.05 % is 0%.

Which killing at 0.01 % ([1]; 24 h) does the source give for `CCCC(=O)OC` [Butyric acid Methyl Ester] here?
The killing at 0.01 % was 0%.

And the killing at 0.05 % ([1]; 24 h)?
The killing at 0.05 % was 28%.

What does the source list for `CCCC(=O)OCC` [Butyric acid Ethyl Ester, Ethyl butyrate]?
killing at 0.01 % [1, 15]: 28%; killing at 0.05 % [1, 16]: 100%

For `COC(=O)c1ccccc1` [Benzoic acid Methyl Ester, Methyl benzoate], which killing at 0.01 % ([1]; 24 h) is on record?
The killing at 0.01 % was 34%.

What about the killing at 0.05 % ([1]; 24 h) of the same molecule?
The killing at 0.05 % was 100%.

What does the source list for `CCOC(=O)CC` [Propionic acid Ethyl Ester]?
killing at 0.01 % [1, 15]: 0%; killing at 0.05 % [1, 16]: 40%

For `COC(C)=O` [Acetic acid Methyl Ester], which killing at 0.01 % [1, 13] is on record?
Its killing at 0.01 % is 0%.

And the killing at 0.05 % [1, 14]?
Its killing at 0.05 % is 29%.

With `CCCCCCCC(=O)OCC` [Caprylic (octanoic) acid Ethyl Ester] as the molecule, how does the “Reduction (% Reduction) of Salmonella typhimurium in vitro” value (“Reduction (% Reduction)” below) [1, 15] read?
The value was 66%.

And the “Reduction (% Reduction)” value [1, 16]?
Its value is 65%.

For `CCOC(=O)CC(=O)O` [Malonic acid Ethyl Ester], which killing at 0.01 % [1, 15] is on record?
The killing at 0.01 % was 36%.

What about the killing at 0.05 % [1, 16] of the same molecule?
Its killing at 0.05 % is 57%.

Which results are given for `COC=O` [Formic acid Methyl Ester]?
killing at 0.01 % [1, 13]: 0%; killing at 0.05 % [1, 14]: 5%

Which results are given for `CCCCCCCCCCCC(=O)OC` [Lauric (dodecanoic) acid Methyl Ester, Methyl laurate]?
killing at 0.01 % [1, 13]: 1%; killing at 0.05 % [1, 14]: 0%

With `CCCCC/C=C\C/C=C\CCCCCCCC(=O)OC` [Linoleic acid Methyl Ester, methyl linoleate] as the molecule, how does the killing at 0.01 % [1, 13] read?
The killing at 0.01 % was 14%.

And the killing at 0.05 % [1, 14]?
Its killing at 0.05 % is 0%.

For `CCCCCCCCCC(=O)O` [capric acid, reference compound], which “minimum inhibitory concentration (MIC)” value ([2]; liquid media) is on record?
Its value is 0.075 mg/mL (≈ 435 µM).

And the “minimum inhibitory concentration (MIC)” value ([2]; solid media)?
The value was 0.02 mg/mL (≈ 116 µM).

For `CCCCCCCCCCCCCC(=O)OC`, which “Reduction (% Reduction)” value [1, 13] is on record?
Its value is 43%.

And the “Reduction (% Reduction)” value [1, 14]?
Its value is 49%.

Which killing at 0.01 % ([1]; 24 h) does the source give for `CCCCC(=O)OC` [Valeric (pentanoic) acid Methyl Ester, Methyl pentanoate] here?
Its killing at 0.01 % is 10%.

And the killing at 0.05 % ([1]; 24 h)?
Its killing at 0.05 % is 100%.

Which “Effectiveness against Salmonella in words” value ([1]; 0.01% and 0.05%) does the source give for `CC(=O)OCCC(C)C` [Isoamyl acetate] here?
The value was “bactericidal activity”.

What about the killing at 0.01 % ([1]; isoamyl acetate itself, 0.01% Dilution, 24 hours) of the same molecule?
The killing at 0.01 % was 44%.

And the killing at 0.05 % ([1]; isoamyl acetate itself, 0.05% Dilution, 24 hours)?
The killing at 0.05 % was 100%.

For `CCOC(=O)c1ccccc1` [Benzoic acid Ethyl Ester, Ethyl benzoate], which killing at 0.01 % ([1]; 24 h) is on record?
The killing at 0.01 % was 100%.

And the killing at 0.05 % ([1]; 24 h)?
The killing at 0.05 % was 100%.

Which results are given for `COC(=O)C(C)C` [Isobutyric acid Methyl Ester]?
killing at 0.01 % [1, 13]: 3%; killing at 0.05 % [1, 14]: 41%

With `CCCCC/C=C\C/C=C\CCCCCCCC(=O)OCC` [Linoleic acid Ethyl Ester] as the molecule, how does the killing at 0.01 % [1, 15] read?
Its killing at 0.01 % is 0%.

And the killing at 0.05 % [1, 16]?
The killing at 0.05 % was 0%.

For `CCC/C=C/C=O` [trans-2-hexenal], which “concentration effective on inhibiting growth” value [3] is on record?
Its value is 250 µg/mL.

What about the “concentration that completely inhibited proliferation” value [4] of the same molecule?
The value was 570 μg/L of air.

What about the “concentration necessary to control microorganisms” value ([5]; beverages not thermally treated) of the same molecule?
The value was 35 ppm.

And the “concentration for control of yeast” value ([5]; with thermal treatment (56° C. for 20 min), equivalent to citral)?
Its value is 25 ppm.

And the “concentration effective on controlling Penicillium expansum” value [6]?
Its value is 12.5 μl/l.

And the minimum biocidal activity [7]?
Its minimum biocidal activity is 800 µg/mL.

What about the minimum inhibitory activity [7] of the same molecule?
The minimum inhibitory activity was 400 µg/mL.

What about the effective concentration [8] of the same molecule?
The effective concentration was 247 mg/L.

And the “concentration that completely inhibited proliferation” value [9]?
The value was 930 micrograms/L of air.

What about the phytotoxicity ([10]; apricots) of the same molecule?
The phytotoxicity was “not phytotoxic”.

What about the phytotoxic concentration ([10]; peaches and nectarines) of the same molecule?
Its phytotoxic concentration is 40 μl/l.

And the “concentration that completely inhibited growth” value [11]?
Its value is 8 ng/l air.

For `CCCCCCCCCC(=O)OC` [Capric (decanoic) acid Methyl Ester], which “Reduction (% Reduction)” value [1, 13] is on record?
Its value is 8%.

What about the “Reduction (% Reduction)” value [1, 14] of the same molecule?
The value was 0%.

Which “Reduction (% Reduction)” value [1, 15] does the source give for `CCCCCCCCCC(=O)OCC` [Capric (decanoic) acid Ethyl Ester] here?
The value was 0%.

What about the “Reduction (% Reduction)” value [1, 16] of the same molecule?
The value was 0%.

What does the source list for `CCCCCCCCC(=O)O` [nonanoic acid]?
minimum inhibitory concentration (MIC) ([2]; liquid media): 0.05 mg/mL (≈ 316 µM); minimum inhibitory concentration (MIC) ([2]; solid media): 0.04 mg/mL (≈ 253 µM)

For `CCCCCC(=O)OC` [Caproic (hexanoic) acid Methyl Ester, Methyl hexanoate], which killing at 0.01 % [1, 13] is on record?
The killing at 0.01 % was 99%.

What about the killing at 0.05 % [1, 14] of the same molecule?
Its killing at 0.05 % is 100%.

For `CCCCCC(=O)OCC` [Caproic (hexanoic) acid Ethyl Ester, Ethyl hexanoate], which killing at 0.01 % [1, 15] is on record?
The killing at 0.01 % was 100%.

And the killing at 0.05 % [1, 16]?
The killing at 0.05 % was 100%.

With `COC(=O)CC(=O)O` [Malonic acid Methyl Ester] as the molecule, how does the killing at 0.01 % [1, 13] read?
Its killing at 0.01 % is 13%.

And the killing at 0.05 % [1, 14]?
The killing at 0.05 % was 9%.

For `CC(C)=CCCC(C)=CC=O` [citral, reference compound], which “equivalent concentration for control of yeast” value ([5]; equivalent to 25 ppm trans-2-hexenal and thermal treatment) is on record?
The value was 100-120 ppm.

For `CCCCCCCCCCCC(=O)OCC` [Lauric (dodecanoic) acid Ethyl Ester], which “Reduction (% Reduction)” value [1, 15] is on record?
The value was 0%.

And the “Reduction (% Reduction)” value [1, 16]?
Its value is 0%.

For `CCCCCCCC(=O)OC` [Caprylic (octanoic) acid Methyl Ester, Methyl octanoate], which killing at 0.01 % [1, 13] is on record?
Its killing at 0.01 % is 94%.

And the killing at 0.05 % [1, 14]?
The killing at 0.05 % was 94%.

With `CC/C=C/CC=O` [trans-3-hexenal] as the molecule, how does the “level effective in controlling bacteria” value [12] read?
The value was 3 to 30 µg/mL.

With `CCCCCCCCCCCCCC(=O)OCC` as the molecule, how does the “Reduction (% Reduction)” value [1, 15] read?
Its value is 12%.

What about the “Reduction (% Reduction)” value [1, 16] of the same molecule?
The value was 8%.

Which killing at 0.01 % [1, 15] does the source give for `CCOC(=O)CCC(C)=O` [Levulinic acid Ethyl Ester] here?
The killing at 0.01 % was 0%.

What about the killing at 0.05 % [1, 16] of the same molecule?
The killing at 0.05 % was 8%.

With `CCC(=O)OC` [Propionic acid Methyl Ester] as the molecule, how does the killing at 0.01 % ([1]; 24 h) read?
Its killing at 0.01 % is 9%.

And the killing at 0.05 % ([1]; 24 h)?
The killing at 0.05 % was 19%.
